Here are results for eight molecules from PubChem BioAssay (NCI).

Structures are written as SMILES.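 The compound was tested at five concentrations on cells cultured in 96-well plates, with a 48-hour exposure period. The concentration for full growth arrest is given as TGI.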

Test systems include SF-539 CNS; 786-0 renal; MCF7 breast; LOX IMVI melanoma; HCT-15 colon; NCI-H460 lung; OVCAR-5 ovarian; UACC-257 melanoma; DU-145 prostate; HL-60(TB) leukemia; SK-MEL-2 melanoma; UACC-62 melanoma; MDA-MB-231 breast; NCI-H522 lung; EKVX NSCLC; HCC-2998 colon; CAKI-1 renal; RPMI-8226 leukemia.
What all share (experiment): NCI tumour cell line growth inhibition, 48 h

In the case of `O=C(OC1C#CCSCC#C/C=C\1)c1cnc2ccccc2n1` (stereo unspecified), the TGI in the test with SF-539 CNS was above 100 µM; in the test on 786-0 renal, 26.3 µM; in the test with MCF7 breast, above 100 µM; in the test with LOX IMVI melanoma, above 100 µM; in the test on HCT-15 colon, above 100 µM; with NCI-H460 lung, 33.7 µM. The TGI with OVCAR-5 ovarian, in the test with UACC-257 melanoma, in the test on DU-145 prostate, in the test on HL-60(TB) leukemia, in the test with SK-MEL-2 melanoma and with UACC-62 melanoma was above 100 µM each time. Moreover, the TGI in the test on MDA-MB-231 breast, in the test with NCI-H522 lung, in the test on EKVX NSCLC and in the test with HCC-2998 colon was above 100 µM in each case.
For `Oc1c(Nc2ccccc2)cc2c3c1N=NC=3CCN=2`, the TGI is above 100 µM in the test on SF-539 CNS; above 100 µM in the test with 786-0 renal; 69 µM in the test on MCF7 breast; 46.6 µM in the test on LOX IMVI melanoma; above 100 µM with HCT-15 colon; above 100 µM in the test with NCI-H460 lung. In addition, the TGI with OVCAR-5 ovarian is above 100 µM; in the test with CAKI-1 renal, above 100 µM; in the test on DU-145 prostate it was above 100 µM; in the test on HL-60(TB) leukemia, 53.2 µM; in the test on RPMI-8226 leukemia it was above 100 µM; in the test with SK-MEL-2 melanoma it was above 100 µM. Moreover, the TGI was 49.2 µM with UACC-62 melanoma; above 100 µM in the test with MDA-MB-231 breast; above 100 µM with NCI-H522 lung; above 100 µM with EKVX NSCLC; above 100 µM in the test on HCC-2998 colon.
In the case of `CC(C)(Cl)C(Br)CCC(=CCBr)CBr` (mixture of isomers), the TGI in the test with SF-539 CNS came out at 4.93 µM; in the test on 786-0 renal it was 3.17 µM; in the test with MCF7 breast it was 8.42 µM; in the test with HCT-15 colon, 3.75 µM; in the test with NCI-H460 lung, 13.6 µM; with OVCAR-5 ovarian it was 26.4 µM. Besides, the TGI stood at 14.2 µM with UACC-257 melanoma; 21.3 µM in the test on DU-145 prostate; 2.42 µM in the test on HL-60(TB) leukemia; 3.22 µM in the test with RPMI-8226 leukemia; 22.9 µM with SK-MEL-2 melanoma; 11.5 µM with UACC-62 melanoma. Also, the TGI with MDA-MB-231 breast amounted to 3.51 µM; with NCI-H522 lung it was 3.19 µM; with EKVX NSCLC, 62 µM; with HCC-2998 colon, 14 µM.
Regarding `C=CC(C)(C)c1c(OC)oc2ccc(OC)c(C)c2c1=O`, the TGI in the test with SF-539 CNS, in the test with 786-0 renal, with MCF7 breast, with LOX IMVI melanoma, in the test with HCT-15 colon and in the test on NCI-H460 lung was above 100 µM each time. The TGI in the test with OVCAR-5 ovarian, in the test with UACC-257 melanoma, in the test on CAKI-1 renal, with DU-145 prostate, in the test with HL-60(TB) leukemia and in the test with RPMI-8226 leukemia was above 100 µM throughout. For the same molecule, the TGI with SK-MEL-2 melanoma, in the test with UACC-62 melanoma, in the test with MDA-MB-231 breast, with NCI-H522 lung, with EKVX NSCLC and in the test on HCC-2998 colon was above 100 µM each time.
For `Cc1ccc(OC2CC(n3cnc4c(=O)[nH]c(Br)nc43)OC2Oc2ccc(C)cc2)cc1` (stereo unspecified), the TGI was 50.1 µM in the test on SF-539 CNS; 74.9 µM with 786-0 renal; above 100 µM in the test on MCF7 breast; 72 µM in the test on LOX IMVI melanoma; 91.6 µM in the test with HCT-15 colon; 43.2 µM in the test on NCI-H460 lung. Moreover, the TGI in the test on OVCAR-5 ovarian came to 48.2 µM; with UACC-257 melanoma, 62.2 µM; with CAKI-1 renal it was 75.7 µM; in the test on DU-145 prostate, 53.9 µM; in the test on HL-60(TB) leukemia, 59.2 µM; with RPMI-8226 leukemia, 87.9 µM. Moreover, the TGI in the test on SK-MEL-2 melanoma was 75.8 µM; in the test on UACC-62 melanoma it was 53.7 µM; with MDA-MB-231 breast, 46.9 µM; in the test on NCI-H522 lung, 59.8 µM; in the test on EKVX NSCLC, 62.8 µM; with HCC-2998 colon, 47.3 µM.
Turning to `Cc1nn(C(=O)c2ccc(Cl)cc2)c2c1C(c1ccccc1)SC(N)=N2` (stereo unspecified), the TGI with SF-539 CNS, in the test with 786-0 renal, in the test on MCF7 breast, with LOX IMVI melanoma, in the test with HCT-15 colon and in the test on NCI-H460 lung was above 10 µM in each case. Moreover, the TGI in the test on OVCAR-5 ovarian, in the test on UACC-257 melanoma, with CAKI-1 renal, with DU-145 prostate, in the test on HL-60(TB) leukemia and in the test with RPMI-8226 leukemia was above 10 µM in each case. Also, the TGI in the test on SK-MEL-2 melanoma, in the test on UACC-62 melanoma, in the test with MDA-MB-231 breast, in the test on NCI-H522 lung, in the test on EKVX NSCLC and with HCC-2998 colon was above 10 µM in each case.
In the case of `Cc1ccc(NC(=O)C23CC4CC(CC(C4)C2)C3)c(C(=O)NNC(=O)c2ccc(Cl)cc2)c1`, the TGI in the test on SF-539 CNS came out at 49.5 µM; in the test on 786-0 renal, 59 µM; in the test on MCF7 breast it was 59.7 µM; in the test with LOX IMVI melanoma, 35.3 µM; in the test on HCT-15 colon, 35.7 µM; in the test with NCI-H460 lung, 69.2 µM. Also, the TGI with OVCAR-5 ovarian is 61.3 µM; in the test with UACC-257 melanoma, 9.53 µM; with CAKI-1 renal, 73.8 µM; in the test on DU-145 prostate it was above 100 µM; with HL-60(TB) leukemia, 55.5 µM; in the test with RPMI-8226 leukemia, 41.5 µM. Besides, the TGI worked out at 53.2 µM in the test on UACC-62 melanoma; 50.3 µM in the test with MDA-MB-231 breast; 30.4 µM in the test with NCI-H522 lung; 68 µM with EKVX NSCLC; 30.2 µM in the test with HCC-2998 colon.
With `COc1cc(C2SC(N)=Nc3c2c(C)nn3C(=O)Cc2ccccc2)cc(OC)c1OC` (stereo unspecified), the TGI in the test on SF-539 CNS, with 786-0 renal, in the test with MCF7 breast, with LOX IMVI melanoma, with HCT-15 colon and in the test with NCI-H460 lung was above 100 µM each time. The TGI in the test on UACC-257 melanoma, in the test with CAKI-1 renal, in the test with DU-145 prostate, with HL-60(TB) leukemia, with RPMI-8226 leukemia and in the test on UACC-62 melanoma was above 100 µM in each case. In addition, the TGI with MDA-MB-231 breast, in the test with NCI-H522 lung, in the test with EKVX NSCLC and in the test with HCC-2998 colon was above 100 µM each time.
